Assay results published in US4252808A, “β-Lactam antibacterial agents, their use in pharmaceutical compositions, the process for their preparation and intermediates for use in that process” (Beecham Group Limited, priority 1978, dated 1981).
Values after ≈ are worked out from the molar mass of the structure shown. Counter-ions that a name gives are not always drawn.

What was measured:
Assay type in all cases: cell-based
P. mirabilis C 977 [1] = assay: MIC, serial dilution in nutrient agar with 5% horse blood (Table 1); details: Proteus mirabilis, C977, inoculum 0.001 ml undiluted broth culture
Procedure: (§1) | *Serial dilution in nutrient agar containing 5% horse blood, inoculum | 0.001 ml undiluted broth culture.

S. aureus Russell = assay: as above; details: Staphylococcus aureus, inoculum 0.001 ml undiluted broth culture
Procedure: as §1

S. aureus 1517 [2] = assay: as above; details: Staphylococcus aureus, inoculum 0.001 ml undiluted broth culture
Procedure: as §1

P. rettgeri = assay: as above; details: Providencia rettgeri, inoculum 0.001 ml undiluted broth culture
Procedure: as §1

E. cloacae Nl [3] = assay: as above; details: Enterobacter cloacae, inoculum 0.001 ml undiluted broth culture
Procedure: as §1

S. faecalis 1 [4] = assay: as above; details: Enterococcus faecalis, inoculum 0.001 ml undiluted broth culture
Procedure: as §1

P. morganii = assay: as above; details: Morganella morganii, inoculum 0.001 ml undiluted broth culture
Procedure: as §1

E. coli JT 4 = assay: as above; details: Escherichia coli, JT4, inoculum 0.001 ml undiluted broth culture
Procedure: as §1

S. aureus Oxford [5] = assay: as above; details: Staphylococcus aureus, inoculum 0.001 ml undiluted broth culture
Procedure: as §1

K. aerogenes A [6] = assay: as above; details: Klebsiella aerogenes, inoculum 0.001 ml undiluted broth culture
Procedure: as §1

B. subtilis [7] = assay: as above; details: Bacillus subtilis, inoculum 0.001 ml undiluted broth culture
Procedure: as §1

P. mirabilis C 977 [8] = assay: MIC, serial dilution in DST agar with 10% horse blood (Table 2); details: Proteus mirabilis, C977, inoculum diluted 10^-4
Description: (§2) *Serial dilution in DST agar containing 10% horse blood, inoculum 0.001 m
(§3) broth culture diluted 10^-2 for Grampositive and 10^-4 for
(§4) Gramnegative organisms.

S. pyogenes CN 10 [9] = assay: as above; details: Streptococcus pyogenes, CN10, inoculum diluted 10^-2
Description: as §2, §3, §4

P. morganii 1580 = assay: as above; details: Morganella morganii, inoculum diluted 10^-4
Description: as §2, §3, §4

S. aureus 1517 [10] = assay: as above; details: Staphylococcus aureus, inoculum diluted 10^-2
Description: as §2, §3, §4

E. cloacae Nl [11] = assay: as above; details: Enterobacter cloacae, inoculum diluted 10^-4
Description: as §2, §3, §4

P. rettgeri WM 16 = assay: as above; details: Providencia rettgeri, WM16, inoculum diluted 10^-4
Description: as §2, §3, §4

S. faecalis 1 [12] = assay: as above; details: Enterococcus faecalis, inoculum diluted 10^-2
Description: as §2, §3, §4

E. coli 0111 = assay: as above; details: Escherichia coli, inoculum diluted 10^-4
Description: as §2, §3, §4

S. aureus Oxford [13] = assay: as above; details: Staphylococcus aureus, inoculum diluted 10^-2
Description: as §2, §3, §4

S. pneumoniae CN 33 = assay: as above; details: Streptococcus pneumoniae, CN33, inoculum diluted 10^-2
Description: as §2, §3, §4

S. aureues Russell = assay: as above; details: Staphylococcus aureus, inoculum diluted 10^-2
Description: as §2, §3, §4

K. aerogenes A [14] = assay: as above; details: Klebsiella aerogenes, inoculum diluted 10^-4
Description: as §2, §3, §4

B. subtilis [15] = assay: as above; details: Bacillus subtilis, inoculum diluted 10^-2
Description: as §2, §3, §4

S. pyogenes CN 10 [16] = assay: MIC, serial dilution in nutrient agar with 5% horse blood (Table 1); details: Streptococcus pyogenes, CN10, inoculum 0.001 ml undiluted broth culture
Procedure: as §1

## CC1=C(C(=O)O)N2C(=O)[C@@H](NC(=O)[C@H](O)c3ccccc3)[C@H]2n2nncc21 [Compound 42, (3aR,4S) 4,5-Dihydro-5-oxo-8-methyl-4-D-mandelylamino-3aH-azeto[1,2-a]v-triazolo[3,4-c]pyrimidine-7-carboxylic acid]
P. mirabilis C 977 [1]
  MIC: > 100 µg/mL
S. aureus Russell
  MIC: > 100 µg/mL
S. aureus 1517 [2]
  MIC: > 100 µg/mL
P. rettgeri
  MIC: > 100 µg/mL
E. cloacae Nl [3]
  MIC: > 100 µg/mL
S. faecalis 1 [4]
  MIC: > 100 µg/mL
P. morganii
  MIC: 100 µg/mL (≈ 271 µM)
E. coli JT 4
  MIC: > 100 µg/mL
S. aureus Oxford [5]
  MIC: 25 µg/mL (≈ 67.7 µM)
K. aerogenes A [6]
  MIC: > 100 µg/mL
B. subtilis [7]
  MIC: 1 µg/mL (≈ 2.71 µM)

## CC1=C(C(=O)O)N2C(=O)[C@@H](NC(=O)Cc3cccs3)[C@H]2n2nncc21 [Compound 43, (3aR,4S) 4,5-Dihydro-5-oxo-8-methyl-4-(2-thienylacetamido)-3aH-azeto[1,2-a]y-triazolo[3,4-c]pyrimidine-7-carboxylic acid]
P. mirabilis C 977 [8]
  MIC: 2.5 µg/mL (≈ 6.96 µM)
S. pyogenes CN 10 [9]
  MIC: ≤ 0.2 µg/mL
P. morganii 1580
  MIC: 2.5 µg/mL (≈ 6.96 µM)
S. aureus 1517 [10]
  MIC: 5 µg/mL (≈ 13.9 µM)
E. cloacae Nl [11]
  MIC: > 100 µg/mL
P. rettgeri WM 16
  MIC: > 100 µg/mL
S. faecalis 1 [12]
  MIC: 5 µg/mL (≈ 13.9 µM)
E. coli 0111
  MIC: 10 µg/mL (≈ 27.8 µM)
S. aureus Oxford [13]
  MIC: 2.5 µg/mL (≈ 6.96 µM)
S. pneumoniae CN 33
  MIC: ≤ 0.2 µg/mL
S. aureues Russell
  MIC: 1 µg/mL (≈ 2.78 µM)
K. aerogenes A [14]
  MIC: 2.5 µg/mL (≈ 6.96 µM)
B. subtilis [15]
  MIC: ≤ 0.2 µg/mL
P. mirabilis C 977 [1]
  MIC: 10 µg/mL (≈ 27.8 µM)
S. pyogenes CN 10 [16]
  MIC: < 0.2 µg/mL
S. aureus Russell
  MIC: 2.5 µg/mL (≈ 6.96 µM)
S. aureus 1517 [2]
  MIC: 2.5 µg/mL (≈ 6.96 µM)
P. rettgeri
  MIC: > 100 µg/mL
S. faecalis 1 [4]
  MIC: 2.5 µg/mL (≈ 6.96 µM)
P. morganii
  MIC: > 100 µg/mL
E. coli JT 4
  MIC: > 100 µg/mL
S. aureus Oxford [5]
  MIC: 1 µg/mL (≈ 2.78 µM)
K. aerogenes A [6]
  MIC: 50 µg/mL (≈ 139 µM)
B. subtilis [7]
  MIC: < 0.2 µg/mL

## CC1=C(C(=O)O)N2C(=O)[C@@H](NC(=O)C(C(=O)Oc3ccccc3)c3ccccc3)[C@H]2n2nncc21 (stereo partly drawn) [Compound 44, (3aR,4S) 4,5-Dihydro-5-oxo-8-methyl-4-DL (α-phenoxycarbonylphenyl-acetamido)-3aH-azeto[1,2-a]v-triazolo[3,4-c]pyrimidine-7-carboxylic acid]
P. mirabilis C 977 [8]
  MIC: 10 µg/mL (≈ 21.1 µM)
S. pyogenes CN 10 [9]
  MIC: 10 µg/mL (≈ 21.1 µM)
P. morganii 1580
  MIC: 10 µg/mL (≈ 21.1 µM)
S. aureus 1517 [10]
  MIC: 100 µg/mL (≈ 211 µM)
E. cloacae Nl [11]
  MIC: 50 µg/mL (≈ 106 µM)
P. rettgeri WM 16
  MIC: 10 µg/mL (≈ 21.1 µM)
S. faecalis 1 [12]
  MIC: > 100 µg/mL
E. coli 0111
  MIC: 10 µg/mL (≈ 21.1 µM)
S. aureus Oxford [13]
  MIC: 25 µg/mL (≈ 52.8 µM)
S. pneumoniae CN 33
  MIC: 10 µg/mL (≈ 21.1 µM)
S. aureues Russell
  MIC: 25 µg/mL (≈ 52.8 µM)
K. aerogenes A [14]
  MIC: 10 µg/mL (≈ 21.1 µM)
B. subtilis [15]
  MIC: 25 µg/mL (≈ 52.8 µM)
P. mirabilis C 977 [1]
  MIC: 50 µg/mL (≈ 106 µM)
S. aureus Russell
  MIC: 100 µg/mL (≈ 211 µM)
S. aureus 1517 [2]
  MIC: > 100 µg/mL
P. rettgeri
  MIC: > 50 µg/mL
E. cloacae Nl [3]
  MIC: > 100 µg/mL
S. faecalis 1 [4]
  MIC: > 100 µg/mL
P. morganii
  MIC: > 100 µg/mL
E. coli JT 4
  MIC: > 100 µg/mL
S. aureus Oxford [5]
  MIC: 50 µg/mL (≈ 106 µM)
K. aerogenes A [6]
  MIC: 50 µg/mL (≈ 106 µM)
B. subtilis [7]
  MIC: 25 µg/mL (≈ 52.8 µM)

## CC1=C(C(=O)O)N2C(=O)[C@@H](NC(=O)[C@H](N)c3ccccc3)[C@H]2n2nncc21 [Compound 46, (3aR,4S)-4,5-Dihydro-5-oxo-8-methyl-4-D-α-phenylglycylamino-3aH-azeto[1,2-a]v-triazolo[3,4-c]pyrimidine-7-carboxylic acid trifluoroacetic acid salt]
P. mirabilis C 977 [1]
  MIC: > 100 µg/mL
S. aureus Russell
  MIC: > 100 µg/mL
S. aureus 1517 [2]
  MIC: > 100 µg/mL
P. rettgeri
  MIC: > 100 µg/mL
E. cloacae Nl [3]
  MIC: > 100 µg/mL
S. faecalis 1 [4]
  MIC: > 100 µg/mL
P. morganii
  MIC: > 100 µg/mL
E. coli JT 4
  MIC: > 100 µg/mL
S. aureus Oxford [5]
  MIC: > 100 µg/mL
K. aerogenes A [6]
  MIC: > 100 µg/mL
B. subtilis [7]
  MIC: 100 µg/mL

## CC1=C(C(=O)O)N2C(=O)[C@@H](NC(=O)Cn3ncnn3)[C@H]2n2nncc21 [Compound 47, (3aR,4S)-4,5-Dihydro-5-oxo-8-methyl-4-(2-tetrazolylacetamido)-3aH-azeto[1,2-a]v-triazolo[3,4-c]pyrimidine-7-carboxylic acid]
P. mirabilis C 977 [1]
  MIC: > 100 µg/mL
S. pyogenes CN 10 [16]
  MIC: 1 µg/mL (≈ 2.9 µM)
S. aureus Russell
  MIC: 5 µg/mL (≈ 14.5 µM)
S. aureus 1517 [2]
  MIC: > 100 µg/mL
P. rettgeri
  MIC: > 100 µg/mL
E. cloacae Nl [3]
  MIC: > 100 µg/mL
S. faecalis 1 [4]
  MIC: 50 µg/mL (≈ 145 µM)
P. morganii
  MIC: > 100 µg/mL
E. coli JT 4
  MIC: > 100 µg/mL
S. aureus Oxford [5]
  MIC: 2.5 µg/mL (≈ 7.24 µM)
K. aerogenes A [6]
  MIC: > 100 µg/mL
B. subtilis [7]
  MIC: 0.5 µg/mL (≈ 1.45 µM)
